Assay results reported in patent publication US8653075B2, “Therapeutic methods employing substituted piperidines which are CCR3 antagonists” (Boehringer Ingelheim International GmbH, priority 2009, dated 2014).

Biological target: T1, human chemokine receptor CCR3 (Homo sapiens, UniProt P51677)
T1 construct: expressed in transfected cells; host or cells: K562 cell line (hCCR3-C1 cells), membrane preparation
T1 sequence (P51677 1-355): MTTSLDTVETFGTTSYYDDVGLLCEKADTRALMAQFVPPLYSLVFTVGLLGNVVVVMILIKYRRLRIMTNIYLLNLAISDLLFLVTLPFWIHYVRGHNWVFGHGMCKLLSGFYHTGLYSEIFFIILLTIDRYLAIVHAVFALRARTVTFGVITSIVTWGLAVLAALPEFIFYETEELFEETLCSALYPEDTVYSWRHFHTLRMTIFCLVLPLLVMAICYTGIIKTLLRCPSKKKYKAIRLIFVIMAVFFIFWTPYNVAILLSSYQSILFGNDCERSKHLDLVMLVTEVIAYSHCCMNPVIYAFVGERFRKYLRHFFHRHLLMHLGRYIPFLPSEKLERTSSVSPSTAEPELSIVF
Assay: CCR3 receptor binding assay (SPA, 125I-eotaxin-1 displacement, hCCR3-C1 K562 cell membranes)
Conditions: human Eotaxin-1 at human CCR3-Rezeptor; for inhibition at 1 µM: 1 μM test compound, read-out: CCR3 % inh @ 1 μM; for Ki: dose range 0.1 to 10000 nM
Description: The CCR3 receptor binding test is based on a K562 cell line (leukemia myelogenic blast cells) transfected with the human chemokine receptor CCR3 (hCCR3-C1 cells). The cell membranes were prepared by disrupting the hCCR3-C1 cells by […]. The preparation was centrifuged at 400 g 4° C. for 30 min. The supernatant was transferred into fresh tubes followed by a second centrifugation at 48000 g, 4° C. for 1 h. The membranes were re-suspended in the SPA incubation buffer (25 mM HEPES, 25 mM MgCl2 6×H2O, 1 mM CaCl2 2×H2O) without bovine serum albumin and homogenized by passing through a single use needle (Terumo, 23Gx1″). The membranes were stored in aliquots at −80° C.
The CCR3 receptor binding assay was performed in a Scintillation Proximity Assay (SPA) design with the radioligand recombinant human ^125Iodine-eotaxin-1. Cell membranes of hCCR3 C1 cells were again homogenized by passing through a single use needle (Terumo, 23Gx1″) and diluted in SPA incubation buffer in suitable concentrations (0.5-10 μg protein/well) in 96 well microtiter plates (1450-514, Perkin Elmer). The SPA assay was set up in the SPA incubation buffer with a final volume of 200 μl and final concentration of 25 mM HEPES, 25 mM MgCl2 6×H2O, 1 mM CaCl2 2×H2O and 0.1% bovine serum albumin. The SPA assay mixture contained 60 μl of the membrane suspension, 80 μl of Wheat Germ Agglutinin coated PVT beads (organic scintillator, GE Healthcare, RPNQ-0001) 0.2 mg/well), 40 μl of recombinant human ^125Jodine-eotaxin-1 (Biotrend), diluted in SPA buffer to a final concentration of 30.000 dpm per well, and 20 μl of the test compound (dissolved in DMSO dilutions). The SPA assay mixture was incubated for 2 h at room temperature. Bound radioactivity was determined with a scintillation counter (Micro Beta “Trilux”, Wallac). Included were controls for total binding (no displacer added, Bo) and non-specific binding (NSB) by adding unlabelled recombinant human Eotaxin-1 (Biotrend, Cat #300-21) or a reference compound.
Determination of the affinity of a test compound was calculated by subtraction of the non-specific binding (NSB) from the total binding (Bo) or the binding in the presence of the test compound (B) at a given compound concentration. […] The Bo-NSB value was set to 0% inhibition.
% inhibition and Ki values are (human Eotaxin-1 at human CCR3-Rezeptor): […]

Row | SMILES | inhibition at 1 µM [%] | Ki [nM]
1 | Cc1cc(CN2CCC(N3C(=O)CC[C@H]3C(=O)NCc3ccccc3OC(F)F)CC2)ccc1Cl [Example 38] | 78 | 211
2 | CCCCc1cc(C(=O)N(C)C)cc(NC(=O)C2CCC(=O)N2C2CCN(Cc3ccc(Cl)c(C)c3)CC2)n1 (stereo not shown) [Example 213] | 66 | 414
3 | Cc1cc(CN2CCC(N3C(=O)CC[C@@H]3C(=O)Nc3cc(C(=O)N(C)C)cc(C(C)(C)C)c3)CC2)ccc1Cl [Example 171] | 99 | 5
4 | Cc1cc(CN2CCC(N3C(=O)N(C)C[C@@H]3C(=O)Nc3cccc(-c4ccncc4)c3)CC2)ccc1Cl [Example 120] | 95 | 35
5 | Cc1cc(C(=O)N2CCCC2)cc(NC(=O)[C@H]2CCC(=O)N2C2CCN(Cc3ccc(Cl)c(C)c3)CC2)n1 [Example 132] | 102 | 1
6 | CNC(=O)c1cc(Cl)cc(NC(=O)[C@H]2CCC(=O)N2C2CCN(Cc3ccc(Cl)c(C)c3)CC2)c1 [Example 169] | 99 | 19
7 | CCS(=O)(=O)N(CC(=O)N(C)C)c1cccc(NC(=O)[C@H]2CCC(=O)N2C2CCN(Cc3ccc(Cl)c(C)c3)CC2)c1 [Example 21] | 96 | 11
8 | Cc1cc(CN2CCC(N3C(=O)CC[C@@H]3C(=O)Nc3cccc(S(=O)(=O)CCO)c3)CC2)ccc1Cl [Example 26] | 97 | 27
9 | Cc1cc(CN2CCC(N3C(=O)CC[C@@H]3C(=O)Nc3cccc(C(=O)NC4CCC4)c3)CC2)ccc1Cl [Example 134] | 101 | 3
10 | Cc1cc(CN2CCC(N3C(=O)CC[C@@H]3C(=O)Nc3cccc(C(=O)NC[C@@H]4CCCO4)c3)CC2)ccc1Cl [Example 162] | 97 | 20
11 | Cc1cc(CN2CCC(N3C(=O)CC[C@H]3C(=O)NC3CCN(c4ccccn4)CC3)CC2)ccc1Cl [Example 60] | 65 | 430
12 | CCOC(=O)c1cc(NC(=O)[C@H]2CCC(=O)N2C2CCN(Cc3ccc(Cl)c(C)c3)CC2)nn1C [Example 95] | 94 | 40
13 | Cc1cc(CN2CCC(N3C(=O)N(C)C[C@@H]3C(=O)Nc3cc(C4CC4)nn3C)CC2)ccc1Cl [Example 130] | 91 | 77
14 | CCC(C)NC(=O)c1cccc(NC(=O)[C@H]2CCC(=O)N2C2CCN(Cc3ccc(Cl)c(C)c3)CC2)c1 (stereo partly shown) [Example 143] | 99 | 7
15 | Cc1cc(CN2CCC(N3C(=O)CC[C@@H]3C(=O)N3CCc4ccc([N+](=O)[O-])cc4C3)CC2)ccc1Cl [Example 74] | 46 | 927
16 | Cc1cc(CN2CCC(N3C(=O)CC[C@@H]3C(=O)Nc3cc(C(=O)N4CCCC4)ccn3)CC2)ccc1Cl [Example 139] | 101 | 5
17 | CCC(C)N(C)C(=O)c1cccc(NC(=O)[C@H]2CCC(=O)N2C2CCN(Cc3ccc(Cl)c(C)c3)CC2)c1 (stereo partly shown) [Example 138] | 101 | 4
18 | Cc1cc(CN2CCC(N3C(=O)CC[C@@H]3C(=O)Nc3cc(C(=O)N(C)C)cc(C(=O)N(C)C)c3)CC2)ccc1Cl [Example 105] | 99 | 5
19 | Cc1cc(CN2CCC(N3C(=O)CC[C@H]3C(=O)NCc3cc(C(C)C)no3)CC2)ccc1Cl [Example 52] | 28 | 1750
20 | CNC(=O)c1cc(NC(=O)[C@H]2CCC(=O)N2C2CCN(Cc3ccc(Cl)c(C)c3)CC2)cc(C(F)(F)F)c1 [Example 2] | 98 | 4
21 | CCNS(=O)(=O)c1cccc(NC(=O)[C@H]2CCC(=O)N2C2CCN(Cc3ccc(Cl)c(Cl)c3)CC2)c1 [Example 6] | 100 | 7
22 | Cc1cc(CN2CCC(N3C(=O)CC[C@H]3C(=O)Nc3n[nH]c4ccccc34)CC2)ccc1Cl [Example 42] | 63 | 482

Row | SMILES | inhibition at 1 µM [%] | Ki [nM]
23 | CCNS(=O)(=O)c1cccc(NC(=O)[C@H]2CCC(=O)N2C2CCN(Cc3ccc(Cl)c(C)c3)CC2)c1 [Example 4] | 99 | 5
24 | CN1C[C@H](C(=O)Nc2cc(C3CC3)nn2C)N(C2CCN(Cc3ccc(Cl)c(Cl)c3)CC2)C1=O [Example 198] | 91 | 67
25 | COc1cc(OC)nc(CNC(=O)[C@@H]2CCC(=O)N2C2CCN(Cc3ccc(Cl)c(C)c3)CC2)n1 [Example 50] | 41 | 1290
26 | Cc1nccc(-c2cccc(NC(=O)[C@H]3CCC(=O)N3C3CCN(Cc4ccc(Cl)c(C)c4)CC3)c2)n1 [Example 24] | 99 | 22
27 | Cc1cc(-c2noc(C)n2)cc(NC(=O)[C@H]2CCC(=O)N2C2CCN(Cc3ccc(Cl)c(C)c3)CC2)n1 [Example 193] | 99 | 19
28 | COCC(NC(=O)C1CCC(=O)N1C1CCN(Cc2ccc(Cl)c(C)c2)CC1)c1nc2ccc(Cl)cc2[nH]1 (stereo not shown) [Example 67] | 52 | 700
29 | COc1cc(C(=O)N(C)C)cc(NC(=O)[C@H]2CCC(=O)N2C2CCN(Cc3ccc(Cl)c(C)c3)CC2)n1 [Example 183] | 75 | 232
30 | CCOC(=O)c1sc(NC(=O)[C@H]2CCC(=O)N2C2CCN(Cc3ccc(Cl)c(C)c3)CC2)nc1C [Example 100] | 100 | 7
31 | Cc1cc(CN2C3CCC2CC(N2C(=O)CC[C@@H]2C(=O)Nc2cc(C4CC4)nn2C)C3)ccc1Cl (stereo partly shown) [Example 85] | 68 | 350
32 | Cc1cc(CN2CCC(N3C(=O)CC[C@@H]3C(=O)Nc3cccc(N(CC(=O)N(C)C)S(C)(=O)=O)c3)CC2)ccc1Cl [Example 8] | 99 | 9
33 | Cc1cc(CN2CCC(N3C(=O)CC[C@H]3C(=O)NCc3ccc(Cl)nc3C)CC2)ccc1Cl [Example 70] | 46 | 791
34 | Cc1cc(CN2CCC(N3C(=O)CC[C@H]3C(=O)N3CCc4cc(F)ccc4C3)CC2)ccc1Cl [Example 62] | 63 | 507
35 | Cc1cccc(NC(=O)[C@@H]2CCC(=O)N2C2CCN(Cc3ccc(Cl)c(C)c3)CC2)n1 [Example 40] | 75 | 229
36 | CCn1cc(NC(=O)[C@H]2CCC(=O)N2C2CCN(Cc3ccc(Cl)c(C)c3)CC2)cc1C(=O)N1CCCC1 [Example 164] | 96 | 24
37 | Cc1cc(CN2C3CCC2CC(N2C(=O)CC[C@@H]2C(=O)Nc2cccc(N(CC(=O)N4CCC4)S(C)(=O)=O)c2)C3)ccc1Cl (stereo partly shown) [Example 75] | 97 | 30
38 | Cc1cc(CN2CCC(N3C(=O)N(C)C[C@H]3C(=O)Nc3cccc(-c4cscn4)c3)CC2)ccc1Cl [Example 125] | 97 | 58
39 | Cc1cc(CN2CCC(N3C(=O)N(C)C[C@H]3C(=O)Nc3cc(C4CC4)nn3C)CC2)ccc1Cl [Example 209] | 95 | 33
40 | Cc1cc(CN2CCC(N3C(=O)CC[C@@H]3C(=O)Nc3cc(C(=O)N(C)CCO)cc(-c4nnnn4C)c3)CC2)ccc1Cl [Example 186] | 99 | 1
41 | Cc1cc(CN2CCC(N3C(=O)CC[C@@H]3C(=O)Nc3cccc(C(=O)NCC4CCCCO4)c3)CC2)ccc1Cl (stereo partly shown) [Example 161] | 97 | 20
42 | Cc1cc(CN2CCC(N3C(=O)CC[C@@H]3C(=O)Nc3ccc4[nH]ncc4c3)CC2)ccc1Cl [Example 31] | 93 | 50
43 | COC(=O)c1ccc2c(c1)CCN(C(=O)[C@H]1CCC(=O)N1C1CCN(Cc3ccc(Cl)c(C)c3)CC1)C2 [Example 96] | 51 | 670
44 | Cc1cc(C(=O)N2CCOCC2)cc(NC(=O)[C@H]2CCC(=O)N2C2CCN(Cc3ccc(Cl)c(C)c3)CC2)n1 [Example 140] | 98 | 6
